Experimental data reported in ChEMBL document CHEMBL1201862, “PubChem BioAssay data set” (2004).
Where “and” joins values, the source holds several entries; their conditions need not be identical. Equal values may be shown once.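 Results reflect a 48-hour exposure of cells in 96-well plates to compound at five concentrations. GI50 is the concentration that inhibits growth by half.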 Calls of active or inactive are those of the source. Cut-off read from the data, not from the text of the source: active = GI50 up to about 1.1 µM and inactive = higher.

Columns and labels:
Test in all cases: growth of human tumour cells (NCI), 48 h
786-0 = test system: 786-0
KM12 = test system: KM12
U-251 = test system: U-251
SR = test system: SR
NCI-H522 = test system: NCI-H522
XF498 = test system: XF498
SNB-19 = test system: SNB-19
LOX IMVI = test system: LOX IMVI
OVCAR-8 = test system: OVCAR-8
RXF 393 = test system: RXF 393
Malme-3M = test system: Malme-3M
SK-OV-3 = test system: SK-OV-3
HOP-18 = test system: HOP-18
EKVX = test system: EKVX
A498 = test system: A498
SF-268 = test system: SF-268
OVCAR-3 = test system: OVCAR-3
OVCAR-4 = test system: OVCAR-4
CCRF-CEM = test system: CCRF-CEM
TK-10 = test system: TK-10
SF-539 = test system: SF-539
NCI-H226 = test system: NCI-H226
SNB-78 = test system: SNB-78
SW-620 = test system: SW-620
SNB-75 = test system: SNB-75
LXFL 529 = test system: LXFL 529
HL-60 = test system: HL-60
NCI-H23 = test system: NCI-H23
DLD-1 = test system: DLD-1
SK-MEL-5 = test system: SK-MEL-5
SN12C = test system: SN12C
A549 = test system: A549
MOLT-4 = test system: MOLT-4
DMS-273 = test system: DMS-273
COLO 205 = test system: COLO 205
M19-MEL = test system: M19-MEL
K562 = test system: K562
HCC 2998 = test system: HCC 2998
HCT-116 = test system: HCT-116
M14 = test system: M14
NCI-H460 = test system: NCI-H460
HT-29 = test system: HT-29
SF-295 = test system: SF-295
HOP-62 = test system: HOP-62
SK-MEL-2 = test system: SK-MEL-2
UACC-257 = test system: UACC-257
HCT-15 = test system: HCT-15
SK-MEL-28 = test system: SK-MEL-28
ACHN = test system: ACHN
CAKI-1 = test system: CAKI-1
KM-20L2 = test system: KM-20L2
UO-31 = test system: UO-31
OVCAR-5 = test system: OVCAR-5
IGROV-1 = test system: IGROV-1
HOP-92 = test system: HOP-92
RXF 631 = test system: RXF 631
UACC-62 = test system: UACC-62
DMS-114 = test system: DMS-114
T47D = test system: T47D
BT-549 = test system: BT-549
MDA-N = test system: MDA-N
Hs-578T = test system: Hs-578T
RPMI-8226 = test system: RPMI-8226
MDA-MB-231 = test system: MDA-MB-231
DU-145 = test system: DU-145
MDA-MB-435 = test system: MDA-MB-435
MCF7 = test system: MCF7
NCI/ADR-RES = test system: NCI/ADR-RES
PC-3 = test system: PC-3

Cc1cccc(C(C)C)c1N1C(=O)C(=O)C(c2nc3ccccc3o2)C(=O)C1=O
GI50 (786-0): > 100 µM (inactive) | GI50 (KM12): > 100 µM (inactive) | GI50 (U-251): 89.3 µM (inactive) | GI50 (SR): 70 µM (inactive) | GI50 (NCI-H522): 29.5 µM (inactive) | GI50 (XF498): 21.1 µM (inactive) | GI50 (SNB-19): > 100 µM (inactive) | GI50 (LOX IMVI): 41.7 µM (inactive) | GI50 (OVCAR-8): > 100 µM (inactive) | GI50 (RXF 393): 21.4 µM (inactive) | GI50 (Malme-3M): > 100 µM (inactive) | GI50 (SK-OV-3): > 100 µM (inactive) | GI50 (HOP-18): > 100 µM (inactive) | GI50 (EKVX): 42.7 µM (inactive) | GI50 (A498): > 100 µM (inactive) | GI50 (SF-268): > 100 µM (inactive) | GI50 (OVCAR-3): 32.1 µM (inactive) | GI50 (OVCAR-4): > 100 µM (inactive) | GI50 (CCRF-CEM): 20.2 µM (inactive) | GI50 (TK-10): > 100 µM (inactive) | GI50 (SF-539): > 100 µM (inactive) | GI50 (NCI-H226): > 100 µM (inactive) | GI50 (SNB-78): > 100 µM (inactive) | GI50 (SW-620): 56.8 µM (inactive) | GI50 (SNB-75): 26.9 µM (inactive) | GI50 (LXFL 529): 61.1 µM (inactive) | GI50 (HL-60): 30.3 µM (inactive) | GI50 (NCI-H23): 80.2 µM (inactive) | GI50 (DLD-1): 39.4 µM (inactive) | GI50 (SK-MEL-5): 60.1 µM (inactive) | GI50 (SN12C): > 100 µM (inactive) | GI50 (A549): > 100 µM (inactive) | GI50 (MOLT-4): 24.7 µM (inactive) | GI50 (DMS-273): 93.8 µM (inactive) | GI50 (COLO 205): 41.8 µM (inactive) | GI50 (M19-MEL): 55.3 µM (inactive) | GI50 (K562): 49 µM (inactive) | GI50 (HCC 2998): 95.7 µM (inactive) | GI50 (HCT-116): 53.7 µM (inactive) | GI50 (M14): > 100 µM (inactive) | GI50 (NCI-H460): 76.7 µM (inactive) | GI50 (HT-29): 56.2 µM (inactive) | GI50 (SF-295): > 100 µM (inactive) | GI50 (HOP-62): > 100 µM (inactive) | GI50 (SK-MEL-2): > 100 µM (inactive) | GI50 (UACC-257): 51.9 µM (inactive) | GI50 (HCT-15): 35.5 µM | GI50 (SK-MEL-28): > 100 µM (inactive) | GI50 (ACHN): > 100 µM (inactive) | GI50 (CAKI-1): > 100 µM (inactive) | GI50 (KM-20L2): 35.4 µM (inactive) | GI50 (UO-31): > 100 µM (inactive) | GI50 (OVCAR-5): > 100 µM (inactive) | GI50 (IGROV-1): > 100 µM (inactive) | GI50 (HOP-92): > 100 µM (inactive) | GI50 (RXF 631): 27.2 µM (inactive) | GI50 (UACC-62): 61 µM (inactive) | GI50 (DMS-114): 24.7 µM (inactive)

COc1cc(NC(C)CCCN)c2ncccc2c1 (stereo not drawn) [PRIMAQUINE PHOSPHATE]
GI50 (KM12): > 81.5 µM (inactive) and 73.3 µM (inactive) | GI50 (T47D): 16 µM (inactive) | GI50 (BT-549): 41.1 µM (inactive) | GI50 (NCI-H522): 90.6 µM (inactive) and 52.1 µM (inactive) | GI50 (XF498): 35 µM (inactive) | GI50 (LOX IMVI): 43.9 µM (inactive) and 51.4 µM (inactive) | GI50 (OVCAR-8): 70.6 µM (inactive) and 63.1 µM (inactive) | GI50 (MDA-N): 29.6 µM (inactive) | GI50 (HOP-18): > 36.1 µM (inactive) | GI50 (EKVX): > 66.1 µM (inactive) and 77.3 µM (inactive) | GI50 (SF-268): 94.4 µM (inactive) and 79.3 µM (inactive) | GI50 (OVCAR-3): 22.6 µM (inactive) and 43.7 µM (inactive) | GI50 (OVCAR-4): > 88.3 µM (inactive) | GI50 (CCRF-CEM): 26.7 µM (inactive) and 45.8 µM (inactive) | GI50 (TK-10): 49.8 µM (inactive) and > 94.4 µM (inactive) | GI50 (Hs-578T): 39.4 µM (inactive) | GI50 (SF-539): > 100 µM (inactive) | GI50 (RPMI-8226): 42.8 µM (inactive) and 22.6 µM (inactive) | GI50 (NCI-H226): > 68.5 µM (inactive) and 97.9 µM (inactive) | GI50 (SNB-78): > 100 µM (inactive) | GI50 (SW-620): 52.2 µM (inactive) and 73.8 µM (inactive) | GI50 (SNB-75): 47.2 µM (inactive) and 24.1 µM (inactive) | GI50 (LXFL 529): 60.7 µM (inactive) | GI50 (HL-60): 8.17 µM (inactive) and 10.4 µM (inactive) | GI50 (MDA-MB-231): 43.7 µM (inactive) | GI50 (NCI-H23): > 100 µM (inactive) and > 90.6 µM (inactive) | GI50 (DLD-1): 76.6 µM (inactive) | GI50 (SK-MEL-5): 29.8 µM (inactive) and 17.8 µM (inactive) | GI50 (A549): > 100 µM (inactive) | GI50 (MOLT-4): 25.2 µM (inactive) and 39.4 µM (inactive) | GI50 (DMS-273): > 100 µM (inactive) | GI50 (COLO 205): 17.8 µM (inactive) and 32.5 µM (inactive) | GI50 (M19-MEL): 47.5 µM (inactive) | GI50 (K562): 28.9 µM (inactive) and 20.9 µM (inactive) | GI50 (HCC 2998): 28.2 µM (inactive) and 16.9 µM (inactive) | GI50 (DU-145): 99.1 µM (inactive) | GI50 (HT-29): 37.1 µM (inactive) and 28.8 µM (inactive) | GI50 (SF-295): 98.2 µM (inactive) and 52.4 µM (inactive) | GI50 (SK-MEL-2): 26.9 µM (inactive) and 45.1 µM (inactive) | GI50 (MDA-MB-435): 38 µM (inactive) | GI50 (ACHN): 51.6 µM (inactive) and 82 µM (inactive) | GI50 (CAKI-1): 59 µM (inactive) and 62.4 µM (inactive) | GI50 (MCF7): 16.4 µM (inactive) | GI50 (KM-20L2): 57.5 µM (inactive) | GI50 (NCI/ADR-RES): > 100 µM (inactive) | GI50 (OVCAR-5): > 91 µM (inactive) and > 83.4 µM (inactive) | GI50 (IGROV-1): 51.4 µM (inactive) and > 88.7 µM (inactive) | GI50 (PC-3): 33.6 µM (inactive) | GI50 (RXF 631): > 91.2 µM (inactive) | GI50 (DMS-114): 37.7 µM (inactive)
